Consider six compounds from DBAASP.

What is called MIC is the lowest concentration that inhibits growth of the organism. Low readings indicate a more susceptible organism, high ones a less susceptible organism.

Common to all, as to assay: ≥ marks a high value that may be exact or a test limit, other limits are often not marked, values filed in µg/mL are converted to µM
In test [1] the test system is Bacillus anthracis.
For test [2], the system named is Bacillus cereus ATCC 14579.
Test [3] deals with Bacillus licheniformis.
Test [4] deals with Bacillus subtilis ATCC 6633.
Test [5] concerns Bacillus subtilis.
For test [6], the system named is Enterobacter sp.
The subject of test [7] is Escherichia coli ATCC 25922.
Test [8] concerns Escherichia coli.
Test [9] relates to Klebsiella pneumoniae ATCC 700603.
Test [10] has as its system Lactiplantibacillus plantarum ATCC 8014.
Test [11] deals with Lactococcus lactis ATCC 11454.
Test [12] concerns Priestia flexa.
Test [13] concerns Salmonella enterica subsp. enterica serovar Enteritidis ATCC 13076.
Test [14] relates to Serratia marcescens.
The subject of test [15] is Staphylococcus aureus ATCC 25923.
Test [16] deals with Staphylococcus aureus.
For test [17], the system named is Citrobacter koseri.
Test [18] has as its system Escherichia coli BL21.
In test [19] the test system is Escherichia coli JM109.
For test [20], the system named is Klebsiella pneumoniae CCRC 10694.
Test [21] has as its system Pseudomonas aeruginosa.
The subject of test [22] is Salmonella enterica.
Test [23] concerns Salmonella typhimurium CCRC 12947.
Test [24] relates to Staphylococcus aureus CCRC 12652.
Test [25] has as its system Staphylococcus aureus CCRC 15211.
Test [26] concerns Staphylococcus xylosus.
Test [27] relates to Streptococcus alactolyticus.
The subject of test [28] is Vibrio parahaemolyticus CCRC 10806.
The test system of test [29] is Staphylococcus aureus A170.
In test [30] the test system is Staphylococcus epidermidis.
Test [31] concerns Acinetobacter baumannii ATCC 15308.
The subject of test [32] is Enterococcus faecium ATCC 19434.
The test system of test [33] is Escherichia coli BL2.
For test [34], the system named is Micrococcus luteus ATCC 7468.
Test [35] relates to Pseudomonas sp. ATCC 15915.
Test [36] concerns Staphylococcus aureus ATCC 502A.
Test [37] concerns Acinetobacter baumannii ATCC 17978.
Test [38] concerns Acinetobacter baumannii AYE.
Test [39] has as its system Candida albicans NCPF 3179.
Test [40] relates to Enterococcus faecalis NCTC 12201.
For test [41], the system named is Enterococcus faecalis NCTC 775.
Test [42] relates to Klebsiella pneumoniae M6.
The test system of test [43] is Klebsiella pneumoniae NCTC 13368.
In test [44] the test system is Pseudomonas aeruginosa NCTC 13437.
Test [45] concerns Pseudomonas aeruginosa PAO1.
Test [46] concerns Staphylococcus aureus NCTC 13277.
Test [47] has as its system Staphylococcus aureus NCTC 13616.
For test [48], the system named is Staphylococcus aureus NCTC 6571.
Test [49] relates to Candida tropicalis.

Converted amounts (≈) assume the structure as drawn. “And” between values parts separate entries of the source, which are not always exact repeats. Identical values can stand only once.

As to `CC(C)C[C@H](NC(=O)[C@@H](NC(=O)[C@H](CO)NC(=O)[C@H](CC(C)C)NC(=O)[C@@H]1CCCN1C(=O)[C@H](CC(C)C)NC(=O)[C@H](CO)NC(=O)[C@H](CCCCN)NC(=O)[C@H](CO)NC(=O)[C@@H](N)Cc1ccc(O)cc1)C(C)C)C(=O)N[C@@H](CC(N)=O)C(=O)N1CCC[C@H]1C(=O)O` [YSKSLPLSVLNP], the minimal inhibitory concentration (MIC) was at least 97.2 µM in test [1]; at least 48.6 µM in test [2]; at least 97.2 µM in test [3]; 12.1 µM (≈ 16 µg/mL) in test [4]; 24.3 µM (≈ 32 µg/mL) in [5]; 12.1 µM (≈ 16 µg/mL) in test [6]. Moreover, the MIC in test [7] is 6.07 µM (≈ 8 µg/mL); in test [8] it was 6.07 µM (≈ 8 µg/mL); in test [9], 12.1 µM (≈ 16 µg/mL); in test [10] it was 24.3 µM (≈ 32 µg/mL); in test [11] it was at least 97.2 µM; in test [12], 24.3 µM (≈ 32 µg/mL). Also, the MIC in test [13] is 3.04 µM (≈ 4 µg/mL); in test [14] it was 24.3 µM (≈ 32 µg/mL); in [15], 24.3 µM (≈ 32 µg/mL); in test [16], 48.6 µM (≈ 64 µg/mL).

Take `CC[C@H](C)[C@H](N)C(=O)N[C@@H](CC(N)=O)C(=O)N[C@@H](CC(C)C)C(=O)N[C@@H](CCCCN)C(=O)N[C@@H](C)C(=O)N[C@H](C(=O)N[C@@H](C)C(=O)N[C@@H](C)C(=O)N[C@@H](Cc1ccccc1)C(=O)N[C@@H](C)C(=O)N[C@@H](CCCCN)C(=O)N[C@@H](CCCCN)C(=O)N[C@@H](CC(C)C)C(=O)N[C@@H](CC(C)C)C(N)=O)[C@@H](C)CC` [INLKAIAAFAKKLL]: the MIC in [17] was determined as 2.64 µM (≈ 4 µg/mL); in test [18], 5.28 µM (≈ 7.99 µg/mL); in test [19], 5.28 µM (≈ 7.99 µg/mL); in test [20], 21.1 µM (≈ 32 µg/mL); in test [21] it was 84.5 µM (≈ 128 µg/mL); in test [22], 10.6 µM (≈ 16 µg/mL). The MIC in test [23] is 21.1 µM (≈ 32 µg/mL); in test [24], 15.9 µM (≈ 24 µg/mL); in test [25], 21.1 µM (≈ 32 µg/mL); in test [26], 1.32 µM (≈ 2 µg/mL); in test [27] it was 10.6 µM (≈ 16 µg/mL); in test [28], 21.1 µM (≈ 32 µg/mL).

Take `CC[C@H](C)[C@H](NC(=O)[C@@H]1CCCN1C(=O)[C@H](CC(C)C)NC(=O)[C@@H](N)CC(C)C)C(=O)N[C@H](C(=O)N[C@@H](C)C(=O)N[C@@H](CC(N)=O)C(=O)N[C@@H](CC(C)C)C(=O)N[C@@H](CC(C)C)C(=O)N[C@@H](CCCCN)C(=O)N[C@@H](CO)C(=O)N[C@@H](CC(C)C)C(=O)N[C@@H](CC(C)C)C(=O)O)C(C)C` [LLPIVANLLKSLL]: the results for the MIC in [29] and in test [30] were 3.55 µM (≈ 5 µg/mL) and 7.11 µM (≈ 10 µg/mL), respectively.

As for `CC[C@H](C)[C@H](NC(=O)[C@H](C)NC(=O)[C@H](Cc1ccccc1)NC(=O)[C@H](Cc1c[nH]c2ccccc12)NC(=O)[C@H](CCC(N)=O)NC(=O)[C@H](C)NC(=O)[C@H](CCCN=C(N)N)NC(=O)[C@@H](NC(=O)[C@H](Cc1ccccc1)NC(=O)[C@H](CCC(N)=O)NC(=O)[C@@H]1CCCN1C(=O)[C@@H]1CCCN1C(=O)[C@@H](N)CCCN=C(N)N)[C@@H](C)O)C(=O)N[C@@H](CCC(N)=O)C(=O)N[C@@H](Cc1cnc[nH]1)C(=O)N[C@H](C(=O)N[C@@H](CO)C(=O)N[C@@H](CC(C)C)C(=O)N[C@@H](CC(N)=O)C(=O)O)[C@@H](C)CC` [RPPQFTRAQWFAIQHISLN], the MIC in [31], in test [32], in [33], in test [34], in [35] and in test [36] was 10 µM (≈ 23.1 µg/mL) each time.

`CC[C@H](C)[C@H](NC(=O)[C@@H]1CCCN1C(=O)[C@H](CC(C)C)NC(=O)[C@H](CC(C)C)NC(=O)[C@H](CCCCN)NC(=O)[C@@H](N)CCCCN)C(=O)N[C@H](C(=O)N[C@@H](C)C(=O)N[C@@H](CC(N)=O)C(=O)N[C@@H](CC(C)C)C(=O)N[C@@H](CC(C)C)C(=O)N[C@@H](CCCCN)C(=O)N[C@@H](CO)C(=O)N[C@@H](CC(C)C)C(=O)N[C@@H](CC(C)C)C(N)=O)C(C)C` [KKLLPIVANLLKSLL]: the MIC in test [37] is 19.2 µM and ≥ 38.5 µM; in test [38] it was 19.2 µM and ≥ 38.5 µM; in [39], at least 77 µM; in test [40] it was at least 77 µM; in test [41] it was at least 77 µM; in test [42], at least 77 µM. Besides, the minimal inhibitory concentration (MIC) was at least 77 µM in [43]; at least 77 µM in test [44]; over 77 µM in test [45]; at least 77 µM in test [46]; at least 77 µM in test [47]; at least 77 µM in [48].

In the case of `CSCC[C@H](NC(=O)[C@@H](N)CC(C)C)C(=O)N[C@H]1CSSC[C@@H](C(=O)N[C@@H](CO)C(=O)N[C@@H](CC(N)=O)C(=O)O)NC(=O)[C@H](CC(=O)O)NC(=O)[C@H](CC(C)C)NC(=O)[C@@H]2CCCN2C(=O)[C@H](Cc2cnc[nH]2)NC(=O)[C@H]([C@@H](C)O)NC1=O` [LMCTHPLDCSN], in test [49], the MIC is 25.9 µM (≈ 31.9 µg/mL).
